Results on 20 molecules are retold here after patent US6403034B1, “Method of reducing the concentration of recalcitrant organic contamination in a soil matrix” (priority 1995, dated 2002).

Like-named read-outs stand apart in the source and are kept apart here.

Series [1] can be described thus: Relative recalcitrancy classification of organic contaminants (FIG. 1). The class given is physicochemical.
Series [2] can be described thus: Ozonation of contaminated soil slurry in 5-L reaction flask (Examples 1, 2 and 7). The class given is physicochemical.
Series [3] is classed as physicochemical. Conditions: for soil concentration reduced by: continuous ozonation for 56 days.
Series [4] is described as follows: Laboratory ozonation of contaminants, incubation versus oxidation phase (FIGS. 2, 5, 6, 8-12). The class given is physicochemical. As to conditions: for incubation time: lab conditions.
For series [5] the following is noted: aqueous solubility; cited from earlier work.
Setting [6] is: by solubility, volatility and non-reactivity standards.

Regarding `ClC1=C(Cl)C2(Cl)C3C4C=CC(C4)C3C1(Cl)C2(Cl)Cl` (stereo not shown) [Aldrin], the relative recalcitrancy entry in series [1] is listed as “strongly recalcitrant”.

Take `c1ccccc1` [Benzene]: the relative recalcitrancy result in series [1] (setting [6]) is on record as “non-recalcitrant”.

Turning to `ClC1=C(Cl)C2(Cl)C3C(Cl)C(Cl)CC3C1(Cl)C2(Cl)Cl` (stereo not shown) [Chlordane], the relative recalcitrancy result in series [1] is reported as “strongly recalcitrant”.

Turning to `Clc1ccc(C(c2ccc(Cl)cc2)C(Cl)(Cl)Cl)cc1` [DDT], the relative recalcitrancy result in series [1] is reported as “strongly recalcitrant”.

Turning to `CCCCCCCCOC(=O)c1ccccc1C(=O)OCCCCCCCC` [Di-n-octyl phthalate], in series [2] (Example 2, in 48 hours of ozonation, start 37 mg/Kg), the “concentration reduced by” value is recorded as 97%.

With `O=S1OCC2C(CO1)C1(Cl)C(Cl)=C(Cl)C2(Cl)C1(Cl)Cl` (stereo not shown) [Endosulfan II], the incubation phase result in series [3] (31 mg/kg, FIG. 17) is recorded as “about 16 days”. The “soil concentration reduced by” value in series [3] is 100%.

Regarding `CCOP(=S)(OCC)Oc1ccc([N+](=O)[O-])cc1` [Ethyl Parathion], the “soil concentration reduced by” value in series [3] is 100%.

Consider `Clc1c(Cl)c(Cl)c(Cl)c(Cl)c1Cl` [HCB], for which the “incubation phase (ozonation time)” value in series [4] was around 8 h.

`Oc1c(Cl)c(Cl)c(Cl)c(Cl)c1Cl` [PCP, Pentachlorophenol]: the incubation time result in series [4] (FIG. 10) is recorded as “about 45 minutes”. Further, the “concentration reduced by” value in series [2] (Example 1, in 31 hours, start 28 mg/Kg) worked out at 97.5%.

Take `CCOP(=S)(OCC)Oc1ccc([S+](C)[O-])cc1` (stereo not shown) [Phensulfothion]: in series [3], the “soil concentration reduced by” value worked out at 100%.

With `c1cc2c3c(cccc3c1)CC2` [acenapthene], the relative recalcitrancy entry in series [1] is “recalcitrant”.

On to `c1ccc2cc3ccccc3cc2c1` [anthracene], for which the relative recalcitrancy result in series [1] (setting [6]) is recorded as “recalcitrant”.

Turning to `c1ccc2c(c1)cc1ccc3cccc4ccc2c1c34` [benzo(a)pyrene], the incubation time entry in series [4] (FIGS. 6, 8, 9) is “more than 5 hours”.

In the case of `c1ccc(-c2ccccc2)cc1` [biphenyl], in series [5], the solubility was 5,200 μg/L. In addition, the relative recalcitrancy entry in series [1] is “marginally recalcitrant”.

Turning to `CCCCC(CC)COC(=O)c1ccccc1C(=O)OCC(CC)CCCC` (stereo not shown) [bis(2-ethylhexyl)phthalate], the incubation time entry in series [4] (FIGS. 6, 8, 9) was “less than 30 hours”. Moreover, in series [2] (Example 2, in 72 hours of ozonation, start 597 mg/Kg), the “concentration reduced by” value turned out to be 98.2%. Also, the relative recalcitrancy result in series [1] (setting [6]) is “recalcitrant”.

In the case of `c1ccc2c(c1)ccc1c3ccccc3ccc21` [chrysene], the relative recalcitrancy entry in series [1] is given as “recalcitrant”.

In the case of `CCc1ccccc1` [ethylbenzene], the relative recalcitrancy result in series [1] is on record as “non-recalcitrant”.

Take `CCCCCCC` [heptane]: the relative recalcitrancy entry in series [1] (setting [6]) is given as “non-recalcitrant”.

With `CCOC(=O)CC(SP(=S)(OC)OC)C(=O)OCC` (stereo not shown) [malathion], the relative recalcitrancy entry in series [1] is given as “recalcitrant”.

Regarding `c1ccc2ccccc2c1` [napthalene], the relative recalcitrancy result in series [1] is given as “recalcitrant”.
